Data from US10077288B2, “Hydroxystatin derivatives for the treatment of arthrosis” (Merck Patent GmbH, priority 2012, dated 2018).

Each compound was assayed against T1, cathepsin D isolated from the human liver (Homo sapiens, UniProt P07339) (assay: In-vitro fluorescence assay for identification of cathepsin D inhibitors). Settings: human liver cathepsin D 1.4 nM, pH 5.5; read-out: CatD assay IC50-(M).
T1 construct: cathepsin D isolated from the human liver (Sigma-Aldrich); purchased Sigma-Aldrich; host or cells: human liver (tissue-derived, not recombinant)
T1 sequence (P07339 65-161 limits assumed): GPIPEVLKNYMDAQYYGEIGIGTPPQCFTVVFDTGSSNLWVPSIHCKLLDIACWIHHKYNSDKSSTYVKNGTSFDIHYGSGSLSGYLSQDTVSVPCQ
T1 sequence (P07339 169-412 limits assumed): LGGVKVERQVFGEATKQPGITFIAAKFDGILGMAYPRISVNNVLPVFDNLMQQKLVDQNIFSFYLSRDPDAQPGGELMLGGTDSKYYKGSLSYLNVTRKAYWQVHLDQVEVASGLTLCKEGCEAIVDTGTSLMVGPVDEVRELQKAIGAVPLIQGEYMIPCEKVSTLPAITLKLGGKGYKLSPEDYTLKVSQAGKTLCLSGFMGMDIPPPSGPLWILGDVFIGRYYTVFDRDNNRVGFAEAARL
Type: biochemical
Description: EXAMPLE 4: IN-VITRO FLUORESCENCE ASSAY FOR IDENTIFICATION OF CATHEPSIN D INHIBITORS
In order to identify modulators of cathepsin D activity, a continuous enzymatic test was carried out with a synthetic peptide which carries a fluorescent group (MCA=(7-methoxycoumarin-4-yl)acetyl) which is quenched by energy transfer from a Dpn (2,4 dinitrophenyl) group on the same molecule, in Greiner 384-well nb microtitre plates. Cleavage of the peptidic substrate by cathepsin D causes an increase in the fluorescence intensity. In order to determine the efficacy of substances, the time-dependent increase in the fluorescence intensity in the presence of the substance was compared with the time-dependent increase in fluorescence in the absence of substances. The reference substance used was pepstatin A (Sigma-Aldrich). The substrate used was MCA-GKPILFFRLK(Dnp)d-R—NH2 (Enzo Life Sciences, Lörrach). The enzyme employed was cathepsin D isolated from the human liver (Sigma-Aldrich) in a final concentration of 1.4 nM. The test was carried out in 100 mM sodium acetate buffer, 1.25% (v/v) of DMSO, 0.25% (w/v) of Chaps, pH 5.5. 2 μl of each substance solution with serially diluted substance concentration were added to in each case 4 μl of cathepsin D solution and incubated at room temperature for 10 min. The reaction was started by addition of 2 μl of substrate solution (final concentration 5 μM). After carrying out a starting-point fluorescence measurement (excitation wavelength 340 nm/emission wavelength 450 nm) using an Envision multilabel reader (Perkin Elmer), the reaction was incubated at room temperature for 60 min. The amount of peptide fragment cleaved off during the reaction time was subsequently measured by determination of the increase in the fluorescence intensity at 450 nm (excitation wavelength 340 nm).

SMILES	IC50
CC[C@H](C)[C@H](NC(=O)C[C@H](O)[C@H](Cc1ccccc1)NC(=O)[C@@H](NC(=O)CCCc1ccccc1)C(C)C)C(=O)N[C@H](C(=O)OCc1ccccc1)C(C)C [Compound 2, benzly (S)-2-((2S,3S)-2-{(3S,4S)-3-hydroxy-4-[(S)-3-methyl-2-(4-phenylbutyrylamino)butyrylamino]-5-phenylpentanoylamino}-3-methylpentanoylamino)-3-methylbutyrate]	7.1e-08 M
CC[C@H](C)[C@H](NC(=O)C[C@H](O)[C@H](Cc1ccccc1)NC(=O)[C@@H](NC(=O)C(C)(C)Oc1ccc2ccccc2c1)C(C)C)C(=O)N[C@H](C(=O)O)C(C)C [Compound 6, (S)-2-[(2S,3S)-2-((3S,4S)-3-hydroxy-4-{(S)-3-methyl-2-[2-methyl-2-(naphthalen-2-yloxy)propionylamino]butyrylamino}-5-phenylpentanoylamino)-3-methylpentanoylamino]-3-methylbutyric acid]	2.3e-07 M
CC[C@H](C)[C@H](NC(=O)C[C@H](O)[C@H](Cc1ccccc1)NC(=O)[C@@H](NC(=O)COc1ccc2ccccc2c1)C(C)C)C(=O)N[C@H](C(=O)OCc1ccccc1)C(C)C [Compound 7]	3.5e-07 M
CC[C@H](C)[C@H](NC(=O)C[C@H](O)[C@H](Cc1ccccc1)NC(=O)[C@@H](NC(=O)Cc1ccc(OC)c(OC)c1)C(C)C)C(=O)N[C@H](C(=O)OCc1ccccc1)C(C)C [Compound 10, benzly (S)-2-[(2S,3S)-2-((3S,4S)-4-{(S)-2-[2-(3,4-dimethoxyphenyl)-acetylamino]-3-methylbutyrylamino}-3-hydroxy-5-phenylpentanoylamino)-3-methylpentanoylamino]-3-methylbutyrate]	2.9e-08 M
CC[C@H](C)[C@H](NC(=O)C[C@H](O)[C@H](Cc1ccccc1)NC(=O)[C@@H](NC(=O)Cc1ccc(OC)cc1)C(C)C)C(=O)N[C@H](C(=O)OCc1ccccc1)C(C)C [Compound 11, benzly (S)-2-[(2S,3S)-2-((3S,4S)-3-hydroxy-4-{(S)-2-[2-(4-methoxy-phenyl)acetylamino]-3-methylbutyrylamino}-5-phenylpentanoylamino)-3-methylpentanoylamino]-3-methylbutyrate]	9e-08 M
CCOc1cccc(CC(=O)N[C@H](C(=O)N[C@@H](Cc2ccccc2)[C@@H](O)CC(=O)N[C@H](C(=O)N[C@H](C(=O)OCc2ccccc2)C(C)C)[C@@H](C)CC)C(C)C)c1 [Compound 12, benzly (S)-2-[(2S,3S)-2-((3S,4S)-4-{(S)-2-[2-(3-ethoxyphenyl)-acetylamino]-3-methylbutyrylamino}-3-hydroxy-5-phenylpentanoylamino)-3-methylpentanoylamino]-3-methylbutyrate]	2.5e-08 M
CC[C@H](C)[C@H](NC(=O)C[C@H](O)[C@H](Cc1ccccc1)NC(=O)[C@@H](NC(=O)Cc1cccc(OC)c1)C(C)C)C(=O)N[C@H](C(=O)OCc1ccccc1)C(C)C [Compound 13, benzly (S)-2-[(2S,3S)-2-((3S,4S)-3-hydroxy-4-{(S)-2-[2-(3-methoxy-phenyl)acetylamino]-3-methylbutyrylamino}-5-phenylpentanoylamino)-3-methylpentanoylamino]-3-methylbutyrate]	2.5e-08 M
CC[C@H](C)[C@H](NC(=O)C[C@H](O)[C@H](Cc1ccccc1)NC(=O)[C@@H](NC(=O)Cc1ccc(OC)c(OC)c1)C(C)C)C(=O)N[C@H](C(=O)O)C(C)C [Compound 14, (S)-2-[(2S,3S)-2-((3S,4S)-4-{(S)-2-[2-(3,4-dimethoxyphenyl)acetylamino]-3-methylbutyrylamino}-3-hydroxy-5-phenylpentanoylamino)-3-methylpentanoylamino]-3-methylbutyric acid]	1.5e-07 M
CC[C@H](C)[C@H](NC(=O)C[C@H](O)[C@H](Cc1ccccc1)NC(=O)[C@@H](NC(=O)Cc1ccc2ccccc2c1)C(C)C)C(=O)N[C@H](C(=O)OCc1ccccc1)C(C)C [Compound 16, benzly (S)-2-((2S,3S)-2-{(3S,4S)-3-hydroxy-4-[(S)-3-methyl-2-(2-naphthalen-2-ylacetylamino)butyrylamino]-5-phenylpentanoylamino}-3-methylpentanoylamino)-3-methylbutyrate]	1.5e-07 M
CCOc1cccc(CC(=O)N[C@H](C(=O)N[C@@H](Cc2ccccc2)[C@@H](O)CC(=O)N[C@H](C(=O)N[C@H](C(=O)O)C(C)C)[C@@H](C)CC)C(C)C)c1 [Compound 17, (S)-2-[(2S,3S)-2-((3S,4S)-4-{(S)-2-[2-(3-ethoxyphenyl)acetylamino]-3-methylbutyrylamino}-3-hydroxy-5-phenylpentanoylamino)-3-methylpentanoylamino]-3-methylbutyric acid]	1.55e-08 M
CC[C@H](C)[C@H](NC(=O)C[C@H](O)[C@H](Cc1ccccc1)NC(=O)[C@@H](NC(=O)Cc1cc(OC(F)(F)F)ccc1OC)C(C)C)C(=O)N[C@H](C(=O)OCc1ccccc1)C(C)C [Compound 18, benzly (S)-2-[(2S,3S)-2-((3S,4S)-3-hydroxy-4-{(S)-2-[2-(2-methoxy-5-trifluoromethoxyphenyl)acetylamino]-3-methylbutyrylamino}-5-phenylpentanoylamino)-3-methylpentanoylamino]-3-methylbutyrate]	3.4e-08 M
CC[C@H](C)[C@H](NC(=O)C[C@H](O)[C@H](Cc1ccccc1)NC(=O)[C@@H](NC(=O)Cc1cccc(Oc2ccccc2)c1)C(C)C)C(=O)N[C@H](C(=O)OCc1ccccc1)C(C)C [Compound 19, benzly (S)-2-[(2S,3S)-2-((3S,4S)-3-hydroxy-4-{(S)-3-methyl-2-[2-(3-phenoxyphenyl)acetylamino]butyrylamino}-5-phenylpentanoylamino)-3-methylpentanoylamino]-3-methylbutyrate]	4e-08 M
CC[C@H](C)[C@H](NC(=O)C[C@H](O)[C@H](Cc1ccccc1)NC(=O)[C@@H](NC(=O)Cc1cccc2ccccc12)C(C)C)C(=O)N[C@H](C(=O)OCc1ccccc1)C(C)C [Compound 21, benzly (S)-2-((2S,3S)-2-{(3S,4S)-3-hydroxy-4-[(S)-3-methyl-2-(2-naphthalen-1-ylacetylamino)butyrylamino]-5-phenylpentanoylamino}-3-methylpentanoylamino)-3-methylbutyrate]	1.2e-06 M
CC[C@H](C)[C@H](NC(=O)C[C@H](O)[C@H](Cc1ccccc1)NC(=O)[C@@H](NC(=O)Cc1ccccc1OC)C(C)C)C(=O)N[C@H](C(=O)OCc1ccccc1)C(C)C [Compound 22, benzly (S)-2-[(2S,3S)-2-((3S,4S)-3-hydroxy-4-{(S)-2-[2-(2-methoxy-phenyl)acetylamino]-3-methylbutyrylamino}-5-phenylpentanoylamino)-3-methylpentanoylamino]-3-methylbutyrate]	2.1e-07 M
CC[C@H](C)[C@H](NC(=O)C[C@H](O)[C@H](Cc1ccccc1)NC(=O)[C@@H](NC(=O)Cc1cc(OC(F)(F)F)ccc1OC)C(C)C)C(=O)N[C@H](C(=O)O)C(C)C [Compound 24, (S)-2-[(2S,3S)-2-((3S,4S)-3-hydroxy-4-{(S)-2-[2-(2-methoxy-5-trifluoromethoxyphenyl)acetylamino]-3-methylbutyrylamino}-5-phenylpentanoylamino)-3-methylpentanoylamino]-3-methylbutyric acid]	1.1e-08 M
CC[C@H](C)[C@H](NC(=O)C[C@H](O)[C@H](Cc1ccccc1)NC(=O)[C@@H](NC(=O)Cc1ccc2ccccc2c1)C(C)C)C(=O)N[C@H](C(=O)O)C(C)C [Compound 25, (S)-2-((2S,3S)-2-{(3S,4S)-3-hydroxy-4-[(S)-3-methyl-2-(2-naphthalen-2-ylacetylamino)butyrylamino]-5-phenylpentanoylamino}-3-methylpentanoylamino)-3-methylbutyric acid]	8.1e-09 M
CC[C@H](C)[C@H](NC(=O)C[C@H](O)[C@H](Cc1ccccc1)NC(=O)[C@@H](NC(=O)c1cccc(OC(C)(C)C)c1)C(C)C)C(=O)N[C@H](C(=O)O)C(C)C [Compound 26, (S)-2-((2S,3S)-2-{(3S,4S)-4-[(S)-2-(3-tert-butoxybenzoylamino)-3-methylbutyrylamino]-3-hydroxy-5-phenylpentanoylamino}-3-methylpentanoylamino)-3-methylbutyric acid]	1.2e-07 M
CC[C@H](C)[C@H](NC(=O)C[C@H](O)[C@H](Cc1ccccc1)NC(=O)[C@@H](NC(=O)Cc1cccc(Oc2ccccc2)c1)C(C)C)C(=O)N[C@H](C(=O)O)C(C)C [Compound 27, (S)-2-[(2S,3S)-2-((3S,4S)-3-hydroxy-4-{(S)-3-methyl-2-[2-(3-phenoxyphenyl)acetylamino]butyrylamino}-5-phenylpentanoylamino)-3-methylpentanoylamino]-3-methylbutyric acid]	1.2e-08 M
